Data: patent US8871681B2, “Herbicidal compositions comprising 4-amino-3-chloro-5-fluoro-6-(4-chloro-2-fluoro-3-methoxyphenyl) pyridine-2-carboxylic acid or a derivative thereof and certain sulfonylureas” (Dow AgroSciences LLC, priority 2012, dated 2014)

Assays:
[1] = tested on: GALAP (Galium aparine, cleavers); experiment: Post-emergence foliar-applied weed control in cereal crops, greenhouse (Example III); type: in vivo, Galium aparine (L.); conditions: Table 51, after 20-22 days, 10 gai/ha alone
Procedure: Seeds of the desired test plant species were planted in Sun Gro MetroMix® 306 planting mixture, which typically has a pH of 6.0 to 6.8 and an organic matter content of about 30 percent, in plastic pots with a surface area of 103.2 square centimeters (cm^2). When required to ensure good germination and healthy plants, a fungicide treatment and/or other chemical or physical treatment was applied. The plants were grown for 7-36 days in a greenhouse with an approximate 14 hour photoperiod which was maintained at about 18° C. during the day and 17° C. during the night. Nutrients and water were added on a regular basis and supplemental lighting was provided with overhead metal halide 1000-Watt lamps as necessary. […]
Measured aliquot of benzyl ester of 4-amino-3-chloro-5-fluoro-6-(4-chloro-2-fluoro-3-methoxy-phenyl)pyridine-2-carboxylic acid (Compound A) was placed in 25 milliliter (mL) glass vials and diluted in a volume of 1.25% (v/v) Agri-dex crop oil concentrated to obtain stock solutions. […]
The treated plants and control plants were placed in a greenhouse as described above and watered by sub-irrigation to prevent wash-off of the test compounds. After 20-22 days, the condition of the test plants as compared with that of the control plants was determined visually and scored on a scale of 0 to 100 percent where 0 corresponds to no injury and 100 corresponds to complete kill. […]

[2] = tested on: LAMPU (Lamium purpureum, purple deadnettle); experiment: as above; type: in vivo, Lamium purpureum (L.); conditions: Table 51, after 20-22 days, 10 gai/ha alone
Procedure: (§1) Seeds of the desired test plant species were planted in Sun Gro MetroMix® 306 planting mixture, which typically has a pH of 6.0 to 6.8 and an organic matter content of about 30 percent, in plastic pots with a surface area of 103.2 square centimeters (cm^2). When required to ensure good germination and healthy plants, a fungicide treatment and/or other chemical or physical treatment was applied. The plants were grown for 7-36 days in a greenhouse with an approximate 14 hour photoperiod which was maintained at about 18° C. during the day and 17° C. during the night. Nutrients and water were added on a regular basis and supplemental lighting was provided with overhead metal halide 1000-Watt lamps as necessary. The plants were employed for testing when they reached the second or third true leaf stage.
(§2) Treatments consisted of the benzyl ester of 4-amino-3-chloro-5-fluoro-6-(4-chloro-2-fluoro-3-methoxy-phenyl)pyridine-2-carboxylic acid (Compound A), formulated as an SC (suspension concentrate), and a second cereal herbicide alone and in combination.
(§3) Measured aliquot of benzyl ester of 4-amino-3-chloro-5-fluoro-6-(4-chloro-2-fluoro-3-methoxy-phenyl)pyridine-2-carboxylic acid (Compound A) was placed in 25 milliliter (mL) glass vials and diluted in a volume of 1.25% (v/v) Agri-dex crop oil concentrated to obtain stock solutions. Compound requirements are based upon a 12 mL application volume at a rate of 187 liters per hectare (L/ha). Spray solutions of the second cereal herbicide and experimental compound mixtures were prepared by adding the stock solutions to the appropriate amount of dilution solution to form 12 mL spray solution with active ingredients in two- and three-way combinations. Formulated compounds were applied to the plant material with an overhead Mandel track sprayer equipped with an 8002E nozzle calibrated to deliver 187 L/ha over an application area of 0.503 square meters (m^2) at a spray height of 18 inches (46 cm) above average plant canopy. Control plants were sprayed in the same manner with the solvent blank.
(§4) The treated plants and control plants were placed in a greenhouse as described above and watered by sub-irrigation to prevent wash-off of the test compounds. After 20-22 days, the condition of the test plants as compared with that of the control plants was determined visually and scored on a scale of 0 to 100 percent where 0 corresponds to no injury and 100 corresponds to complete kill.
(§5) Colby's equation was used to determine the herbicidal effects expected from the mixtures (Colby, S. R. 1967. Calculation of the synergistic and antagonistic response of herbicide combinations. Weeds 15:20-22.).
(§6) The following equation was used to calculate the expected activity of mixtures containing two active ingredients, A and B: Expected=A+B−(A×B/100)

[3] = tested on: VERPE (Veronica persica, bird's-eye speedwell); experiment: as above; type: in vivo, Veronica persica Poir.; conditions: Table 51, after 20-22 days, 10 gai/ha alone
Procedure: as §1, §2, §3, §4, §5, §6

[4] = tested on: LEFCH (Leptochloa chinensis, Chinese sprangletop); experiment: Postemergence foliar-applied weed control, direct seeded rice, greenhouse (Example I); type: in vivo, Leptochloa chinensis (L.) Nees; conditions: 22 DAA
Method in brief: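 Greenhouse-grown plants (14 h photoperiod, 29/26 °C day/night) at first to fourth true leaf stage sprayed overhead at 187 L/ha with Compound A (acid equivalent basis) alone or mixed with sulfonylurea ALS inhibitors (active ingredient basis). Final spray contained 1.25% v/v crop oil concentrate; controls received solvent blank.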

[5] = tested on: SETFA (Setaria faberi, giant foxtail); experiment: Pre-emergence soil-applied weed control, greenhouse (Example V); type: in vivo, Setaria faberi Herrm.; conditions: Table 59 (pre-emergence), 25 gai/ha alone
Description: Seeds or nutlets of the desired test plant species were planted in a soil matrix prepared by mixing a loam soil (32 percent silt, 23 percent clay, and 45 percent sand, with a pH of about 6.5 and an organic matter content of about 1.9 percent) and calcareous grit in an 80 to 20 ratio. The soil matrix was contained in plastic pots with a volume of 1 quart and a surface area of 83.6 square centimeters (cm^2).
Treatments consisted of the benzyl ester of 4-amino-3-chloro-5-fluoro-6-(4-chloro-2-fluoro-3-methoxy-phenyl)pyridine-2-carboxylic acid (compound A) formulated as an SC (suspension concentrate) and various herbicidal components alone and in combination. Forms of compound A were applied on an acid equivalent basis.
Other herbicidal components were applied on an acid equivalent or active ingredient basis and included the acetolactate synthase (ALS)-inhibiting herbicide, flazasulfuron, formulated as Katana®.
(§7) Treatment requirements were calculated based upon the rates being tested, the concentration of active ingredient or acid equivalent in the formulation, and a 12 mL application volume at a rate of 187 L/ha.
For treatments comprised of formulated compounds, measured amounts of compounds were placed individually in 25 mL glass vials and diluted in a volume of 1.25% (v/v) Agri-Dex® crop oil concentrate (COC) to obtain 12× stock solutions. […] Application solutions were prepared by adding an appropriate amount of each stock solution (e.g., 1 mL) and diluted to the appropriate final concentrations with the addition of 10 mL of an aqueous mixture of 1.25% (v/v) COC so that the final spray solutions contained 1.25% (v/v) COC. […]
The treated and control pots were placed in a greenhouse and top watered as needed. […] After approximately 4 weeks, the condition of the test plants as compared with that of the untreated plants was determined visually and scored on a scale of 0 to 100 percent where 0 corresponds to no injury or growth inhibition and 100 corresponds to complete kill. […]

[6] = tested on: IPOHE (Ipomoea hederacea, ivyleaf morningglory); experiment: Postemergence foliar-applied weed control, direct seeded rice, greenhouse (Example I); type: in vivo, Ipomoea hederacea Jacq.; conditions: 22 DAA
Description: Seeds or nutlets of the desired test plant species were planted in a soil matrix prepared by mixing a loam or sandy loam soil (e.g., 28.6 percent silt, 18.8 percent clay, and 52.6 percent sand, with a pH of about 5.8 and an organic matter content of about 1.8 percent) and calcareous grit in an 80 to 20 ratio. The soil matrix was contained in plastic pots with a volume of 1 quart and a surface area of 83.6 square centimeters (cm^2). When required to ensure good germination and healthy plants, a fungicide treatment and/or other chemical or physical treatment was applied. The plants were grown for 8-22 days in a greenhouse with an approximate 14 h photoperiod which was maintained at about 29° C. during the day and 26° C. during the night. Nutrients (Peters Excel® 15-5-15 5-Ca 2-Mg and iron chelate) were applied in the irrigation solution as needed and water was added on a regular basis. Supplemental lighting was provided with overhead metal halide 1000-Watt lamps as necessary. The plants were employed for testing when they reached the first through fourth true leaf stage.
Treatments consisted of the acid or esters of 4-amino-3-chloro-5-fluoro-6-(4-chloro-2-fluoro-3-methoxy-phenyl)pyridine-2-carboxylic acid (Compound A), each formulated as an SC, and various herbicidal components alone and in combination. Forms of compound A were applied on an acid equivalent basis.
Other herbicidal components were applied on an active ingredient basis and included acetolactate synthase (ALS)-inhibiting herbicides (sulfonylurea chemical class) azimsulfuron formulated as Gulliver®, bensulfuron-methyl formulated as Londax® 60DF, cyclosulfamuron (technical material), ethoxysulfuron formulated as Sunrice® 15 WDG, flazasulfuron formulated as Katana®, flucetosulfuron formulated as Sukedachi® 1KG G, foramsulfuron formulated as Option®, imazosulfuron formulated as Brazzos® WG, iodosulfuron-methyl-sodium formulated as Hussar®, metsulfuron-methyl formulated as Lorate®, nicosulfuron formulated as Accent®, orthosulfamuron formulated as Strada® WG, primisulfuron-methyl (technical material), propyrisulfuron formulated as Zeta One®, rimsulfuron formulated as Matrix® WG, sulfometuron-methyl formulated as Oust®, and trifloxysulfuron-sodium formulated as Monument® 75WG.
as §7
For treatments comprised of formulated compounds, measured amounts of compounds were placed individually in 25 mL glass vials and diluted in a volume of 1.25% (v/v) Agri-Dex® crop oil concentrated to obtain 12× stock solutions. […] Application solutions were prepared by adding an appropriate amount of each stock solution (e.g., 1 mL) and diluted to the appropriate final concentrations with the addition of 10 mL of an aqueous mixture of 1.25% (v/v) crop oil concentrate so that the final spray solutions contained 1.25+/−0.05% (v/v) Agrcrop oil concentrate.
For treatments comprised of formulated and technical compounds, weighed amounts of the technical materials were placed individually in 25 mL glass vials and dissolved in a volume of 97:3 v/v acetone/DMSO to obtain 12× stock solutions, and measured amounts of the formulated compounds were placed individually in 25 mL glass vials and diluted in a volume of 1.25% (v/v) crop oil concentrate to obtain 12× stock solutions. […] Application solutions were prepared by adding an appropriate amount of each stock solution (e.g., 1 mL) and diluted to the appropriate final concentrations with the addition of an appropriate amount of an aqueous mixture of 1.5% (v/v) crop oil concentrate so that the final spray solutions contained 1.25% (v/v) crop oil concentrate. […]

Structure (SMILES) | Weed Control GALAP Obs [1] [%] | Weed Control LAMPU Obs [2] [%] | Weed Control VERPE Obs [3] [%] | Visual Weed Control Obs ([4]; 25 gai/ha) [%] | Visual Weed Control Obs ([4]; 50 gai/ha) [%] | Visual Weed Control (%) - 27 DAA SETFA Obs [5] [%] | Visual Weed Control Obs ([6]; 50 gai/ha) [%] | Visual Weed Control (%) Obs ([6]; 100 gai/ha) [%] | Visual Weed Control Obs ([6]; 100 gai/ha) [%]
COc1cc(OC)nc(NC(=O)NS(=O)(=O)N(C)S(C)(=O)=O)n1 [Amidosulfuron] | 48 | 0 | 0 |  |  |  |  |  | 
COc1cc(OC)nc(NC(=O)NS(=O)(=O)c2ncccc2C(F)(F)F)n1 [Flazasulfuron, N-[[(4,6-dimethoxy-2-pyrimidinyl)amino]carbonyl]-3-(trifluoromethyl)-2-pyridinesulfonamide, reference compound] |  |  |  | 0 | 10 | 62 | 50 | 50 | 50
